Experimental data as given in PubChem BioAssay (NCI).
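The compound was tested at five concentrations on cells cultured in 96-well plates, with a 48-hour exposure period. At the TGI there is no net growth.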

Tests used:
Experiment in all cases: NCI tumour cell line growth inhibition, 48 h
[1] = test system: HCC-2998 colon
[2] = test system: SNB-75 CNS
[3] = test system: SF-295 CNS
[4] = test system: SW-620 colon
[5] = test system: MALME-3M melanoma
[6] = test system: MCF7 breast
[7] = test system: A498 renal
[8] = test system: NCI-H522 lung
[9] = test system: IGROV1 ovarian
[10] = test system: U251 CNS
[11] = test system: CCRF-CEM leukemia
[12] = test system: HL-60(TB) leukemia
[13] = test system: SK-MEL-5 melanoma
[14] = test system: OVCAR-4 ovarian
[15] = test system: NCI/ADR-RES ovarian
[16] = test system: HCT-116 colon
[17] = test system: SK-OV-3 ovarian
[18] = test system: EKVX NSCLC
[19] = test system: SK-MEL-2 melanoma
[20] = test system: HOP-92 NSCLC
[21] = test system: NCI-H460 lung
[22] = test system: ACHN renal
[23] = test system: RPMI-8226 leukemia
[24] = test system: T-47D breast
[25] = test system: SNB-19 CNS
[26] = test system: UACC-257 melanoma
[27] = test system: RXF 393 renal
[28] = test system: HOP-62 NSCLC
[29] = test system: BT-549 breast
[30] = test system: A549 NSCLC
[31] = test system: SK-MEL-28 melanoma
[32] = test system: M14 melanoma
[33] = test system: MOLT-4 leukemia
[34] = test system: UO-31 renal
[35] = test system: SF-539 CNS
[36] = test system: HT29 colon
[37] = test system: LOX IMVI melanoma
[38] = test system: OVCAR-3 ovarian
[39] = test system: K-562 leukemia
[40] = test system: MDA-MB-435
[41] = test system: DU-145 prostate
[42] = test system: OVCAR-5 ovarian
[43] = test system: NCI-H226 lung
[44] = test system: SR leukemia
[45] = test system: OVCAR-8 ovarian
[46] = test system: CAKI-1 renal
[47] = test system: HCT-15 colon
[48] = test system: NCI-H23 lung
[49] = test system: 786-0 renal
[50] = test system: PC-3 prostate
[51] = test system: SN12C renal
[52] = test system: KM12 colon
[53] = test system: COLO 205 colon
[54] = test system: HS 578T breast
[55] = test system: TK-10 renal
[56] = test system: MDA-MB-231 breast
[57] = test system: SF-268 CNS

Compound: COC(=O)CCC(C)[C@H]1CCC2C3C(C[C@H](OC(C)=O)[C@@]21C)[C@@]1(C)CCC2(C[C@H]1C[C@H]3OC(C)=O)OOC1(CCC(C(C)(C)C)CC1)OO2 (some centres not stated)
- TGI [1]: > 100 µM
- TGI [2]: > 100 µM
- TGI [3]: > 100 µM
- TGI [4]: > 100 µM
- TGI [5]: > 100 µM
- TGI [6]: > 100 µM
- TGI [7]: > 100 µM
- TGI [8]: > 100 µM
- TGI [9]: 48.8 µM
- TGI [10]: > 100 µM
- TGI [11]: > 100 µM
- TGI [12]: > 100 µM
- TGI [13]: > 100 µM
- TGI [14]: > 100 µM
- TGI [15]: > 100 µM
- TGI [16]: > 100 µM
- TGI [17]: > 100 µM
- TGI [18]: 30 µM
- TGI [19]: > 100 µM
- TGI [20]: > 100 µM
- TGI [21]: > 100 µM
- TGI [22]: > 100 µM
- TGI [23]: 45.2 µM
- TGI [24]: > 100 µM
- TGI [25]: > 100 µM
- TGI [26]: > 100 µM
- TGI [27]: > 100 µM
- TGI [28]: 29 µM
- TGI [29]: > 100 µM
- TGI [30]: > 100 µM
- TGI [31]: > 100 µM
- TGI [32]: > 100 µM
- TGI [33]: > 100 µM
- TGI [34]: 29 µM
- TGI [35]: > 100 µM
- TGI [36]: > 100 µM
- TGI [37]: > 100 µM
- TGI [38]: > 100 µM
- TGI [39]: > 100 µM
- TGI [40]: > 100 µM
- TGI [41]: > 100 µM
- TGI [42]: > 100 µM
- TGI [43]: > 100 µM
- TGI [44]: > 100 µM
- TGI [45]: > 100 µM
- TGI [46]: > 100 µM
- TGI [47]: > 100 µM
- TGI [48]: > 100 µM
- TGI [49]: > 100 µM
- TGI [50]: > 100 µM
- TGI [51]: > 100 µM
- TGI [52]: > 100 µM
- TGI [53]: > 100 µM
- TGI [54]: > 100 µM
- TGI [55]: > 100 µM
- TGI [56]: > 100 µM
- TGI [57]: > 100 µM
